The record followed here is US20240174659A1, “COMPOUNDS AND METHODS FOR YAP/TEAD MODULATION AND INDICATIONS THEREFOR” (Opna Bio SA, priority 2021, published 2024).

One may read the IC50 as the point on the concentration scale where inhibition reaches its midpoint.

The assay deals with TEAD-dependent transcription. Briefly: Inhibitor activity against TEAD-dependent transcription in a cell-based reporter assay (MSTO-211H+12XGTIIC luciferase). The settings on record: Homo sapiens; MSTO-211H+12XGTIIC cells, 24 hours incubation, luciferase luminescence normalized to cell viability fluorescence, geometric mean; read-out: MSTO-211H GMean IC50 (uM) Cell Assay Reporter Cell Variant: TEAD. The text has this: Determine Inhibitor Activity Against TEAD-Dependent Transcription in a Cell-Based Reporter Assay
The human mesothelioma cell line MSTO-211H was stably transfected with a pGL4.21 plasmid containing a synthetic promoter with 12 copies of the GTIIC TEAD response element that drives the expression of a luciferase reporter gene^1 using Lipofectamine transfection reagent (Thermo Fisher). Transfected cells were selected using puromycin and single cell clones expressing this construct (referred to as MSTO-211H+12XGTIIC) were generated by limiting dilution. MSTO-211H cells was characterized by genetic alterations in key components of the Hippo pathway^2, resulting in up-regulation of YAP/TEAD-mediated transcription. […] To evaluate TEAD inhibitors, the MSTO-211H+12XGTIIC cell line was seeded in a 96-well plate in 50 μL of culture media at 1×10^4 cells per well and incubated at 37° C. overnight. Serial dilutions of compounds (in total volume of 50 μL of culture media) were added to the cells and incubated at 37° C. for 24 hours. Each plate included cells treated with DMSO as high controls and cells treated with 20 μM of the reference compound K-975 (a known TEAD inhibitor)^3 as low controls. Cell viability was assayed by the addition of 25 μL of CellTiter-Fluor reagent (Promega) followed by a 30-minute incubation at 37° C. and quantification of the fluorescence signal (Ex400/Em505). Subsequently, luciferase expression was assayed by the addition of 25 μL of ONE-Glo reagent (Promega) followed by a 10-minute incubation at room temperature and quantification of the luminescence signal. The luminescence signal was normalized to the fluorescence signal to correct for any loss in cell viability over the 24-hour compound incubation period. The percentage of inhibition of normalized luminescence signal, indicative of compound-mediated inhibition of TEAD-dependent transcription, at individual compound concentrations relative to high and low controls was calculated. The data were analyzed by using nonlinear regression to generate IC50 values for individual compounds.
With `C=CC(=O)N1CCc2ccc(OC3CCCCC3)cc2C1` [P-0061, 1-(7-(cyclohexyloxy)-3,4-dihydroisoquinolin-2(1H)-yl)prop-2-en-1-one], the IC50 is 0.001 to 0.5 µM.

With `C=CC(=O)N1CCc2ccc(Oc3ccc(C#N)cc3)cc2C1` [P-0115, 4-((2-acryloyl-1,2,3,4-tetrahydroisoquinolin-7-yl)oxy)benzonitrile], the IC50 lay in the range of 0.001 to 0.5 µM.

On to `C=CC(=O)N1Cc2cc(OC3CCC(F)(F)CC3)ccc2C(C)C1` (centres unmarked) [P-0094, 1-(7-((4,4-difluorocyclohexyl)oxy)-4-methyl-3,4-dihydroisoquinolin-2(1H)-yl)prop-2-en-1-one], for which the 50% inhibitory concentration (IC50) lay within 0.001 to 0.5 µM.

As for `C=C(F)C(=O)N1CCc2ccc(Oc3cccc(F)c3)cc2C1` [P-0037, 2-fluoro-1-(7-(3-fluorophenoxy)-3,4-dihydroisoquinolin-2(1H)-yl)prop-2-en-1-one], the IC50 is 0.001 to 0.5 µM.

For the compound `C=CC(=O)N1CCc2c(F)cc(OC3CCC(F)(F)CC3)cc2C1` [P-0095, 1-(7-((4,4-difluorocyclohexyl)oxy)-5-fluoro-3,4-dihydroisoquinolin-2(1H)-yl)prop-2-en-1-one], the IC50 is 0.001 to 0.5 µM.

For the compound `C=CC(=O)N1CCc2ccc(NCc3cccc(F)c3)cc2C1` [P-0090, 1-(7-((3-fluorobenzyl)amino)-3,4-dihydroisoquinolin-2(1H)-yl)prop-2-en-1-one], the IC50 lay within 0.001 to 0.5 µM.

For the compound `C=CC(=O)N1CCc2ccc(OCc3ccc(C(F)(F)F)cc3)cc2C1` [P-0078, 1-(7-((4-(trifluoromethyl)benzyl)oxy)-3,4-dihydroisoquinolin-2(1H)-yl)prop-2-en-1-one], the IC50 lay in the range of 0.5 to 20 µM.

Take `C=CC(=O)N1CCc2ccc(Cc3cccc(F)c3)cc2C1` [P-0034, 1-(7-(3-fluorobenzyl)-3,4-dihydroisoquinolin-2(1H)-yl)prop-2-en-1-one]: the IC50 lay in the range of 0.001 to 0.5 µM.

Regarding `C=CC(=O)N1CCc2cccc(Nc3cccc(F)c3)c2C1` [P-0003, 1-(8-((3-fluorophenyl)amino)-3,4-dihydroisoquinolin-2(1H)-yl)prop-2-en-1-one], the half-maximal inhibitory concentration (IC50) lay in the range of 0.5 to 20 µM.

Take `C=CC(=O)N1CCc2ccc(OCc3cccc(C(F)(F)F)c3)cc2C1` [P-0083, 1-(7-((3-(trifluoromethyl)benzyl)oxy)-3,4-dihydroisoquinolin-2(1H)-yl)prop-2-en-1-one]: the IC50 is 0.001 to 0.5 µM.

Turning to `C=CC(=O)N1CCc2ccc(Nc3ccc(F)cc3)cc2C1` [P-0023, 1-(7-((4-fluorophenyl)amino)-3,4-dihydroisoquinolin-2(1H)-yl)prop-2-en-1-one], the IC50 lay within 0.001 to 0.5 µM.

With `C=CC(=O)N1CCc2cc(C)c(Oc3ccc(F)cc3)cc2C1` [P-0043, 1-(7-(4-fluorophenoxy)-6-methyl-3,4-dihydroisoquinolin-2(1H)-yl)prop-2-en-1-one], the IC50 fell in the range of 0.001 to 0.5 µM.

Turning to `C=CC(=O)N1CCc2cc(F)c(Oc3ccc(C(F)(F)F)cc3)cc2C1` [P-0103, 1-(6-fluoro-7-(4-(trifluoromethyl)phenoxy)-3,4-dihydroisoquinolin-2(1H)-yl)prop-2-en-1-one], the IC50 was in the range of 0.001 to 0.5 µM.

Regarding `O=C(/C=C/CN1CCOCC1)N1CCc2ccc(Oc3cccc(F)c3)cc2C1` [P-0039, (E)-1-(7-(3-fluorophenoxy)-3,4-dihydroisoquinolin-2(1H)-yl)-4-morpholinobut-2-en-1-one], the concentration for half-maximal inhibition (IC50) is greater than 20 µM.

`C=CC(=O)N1CCc2cccc(Oc3cccc(F)c3)c2C1` [P-0005, 1-(8-(3-fluorophenoxy)-3,4-dihydroisoquinolin-2(1H)-yl)prop-2-en-1-one]: the IC50 was in the range of 0.001 to 0.5 µM.

As to `C=CC(=O)N1CCc2ccc(NC3CCC4(CC3)CC4)cc2C1` [P-0097, 1-(7-(spiro[2.5]octan-6-ylamino)-3,4-dihydroisoquinolin-2(1H)-yl)prop-2-en-1-one], the IC50 lay in the range of 0.5 to 20 µM.

As for `C=CC(=O)N1CCc2ccc(OCc3ccc(C(F)(F)F)nc3)cc2C1` [P-0079, 1-(7-((6-(trifluoromethyl)pyridin-3-yl)methoxy)-3,4-dihydroisoquinolin-2(1H)-yl)prop-2-en-1-one], the IC50 is greater than 20 µM.
